Several values for one entry are separate records, joined by “and”; a condition that tells them apart may be missing. Equal values may be shown once.
Experiments:
[1] = biological target: T1, Sodium-dependent noradrenaline transporter (Homo sapiens, UniProt P23975); assay: Binding affinity to NET
[2] = biological target: Sodium-dependent serotonin transporter (Homo sapiens) (UniProt P31645); assay: Displacement of [3H]5-HT from SERT at 100 nM
[3] = biological target: Sodium-dependent dopamine transporter (Homo sapiens) (UniProt Q01959); assay: Displacement of […] from DAT at 1000 nM
[4] = biological target: T1, Sodium-dependent noradrenaline transporter; assay: Binding affinity to NET at 100 nM
Liver microsomes [5] = assay: Stability in rat liver microsome; format: ADME
Canis familiaris = species on record: Canis familiaris; assay: Stability in dog liver microsome; format: ADME, Canis lupus familiaris
Liver microsomes [6] = assay: Stability in human liver microsome; format: ADME
Rattus norvegicus [7] = assay: Ability to block alpha-MMT-induced depletion of cortical norepinephrine concentration in Sprague-Dawley rat at 3 mg/kg, sc; format: functional; details: route subcutaneous
Rattus norvegicus [8] = assay: Ability to block alpha-MMT-induced depletion of cortical norepinephrine concentration in orally dosed Sprague-Dawley rat; format: functional; details: po

Sodium-dependent serotonin transporter (Homo sapiens), sequence (P31645 whole entry, looked up): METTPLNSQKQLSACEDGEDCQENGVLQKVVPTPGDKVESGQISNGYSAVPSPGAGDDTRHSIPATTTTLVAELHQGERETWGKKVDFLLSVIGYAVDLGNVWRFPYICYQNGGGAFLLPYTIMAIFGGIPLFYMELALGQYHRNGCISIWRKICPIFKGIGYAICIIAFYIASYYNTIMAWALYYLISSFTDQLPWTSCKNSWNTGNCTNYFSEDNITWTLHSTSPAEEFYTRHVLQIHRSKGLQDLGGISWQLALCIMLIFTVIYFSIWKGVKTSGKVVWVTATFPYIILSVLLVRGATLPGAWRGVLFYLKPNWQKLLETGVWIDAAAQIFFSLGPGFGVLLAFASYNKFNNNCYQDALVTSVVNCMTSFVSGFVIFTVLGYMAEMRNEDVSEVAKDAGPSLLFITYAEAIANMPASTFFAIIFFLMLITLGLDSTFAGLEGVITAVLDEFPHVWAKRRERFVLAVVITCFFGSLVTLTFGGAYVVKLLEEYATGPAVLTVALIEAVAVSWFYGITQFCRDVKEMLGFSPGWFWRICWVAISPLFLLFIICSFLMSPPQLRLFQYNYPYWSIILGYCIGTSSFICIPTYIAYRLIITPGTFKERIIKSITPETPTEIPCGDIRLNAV
Sodium-dependent dopamine transporter (Homo sapiens), sequence (Q01959 whole entry): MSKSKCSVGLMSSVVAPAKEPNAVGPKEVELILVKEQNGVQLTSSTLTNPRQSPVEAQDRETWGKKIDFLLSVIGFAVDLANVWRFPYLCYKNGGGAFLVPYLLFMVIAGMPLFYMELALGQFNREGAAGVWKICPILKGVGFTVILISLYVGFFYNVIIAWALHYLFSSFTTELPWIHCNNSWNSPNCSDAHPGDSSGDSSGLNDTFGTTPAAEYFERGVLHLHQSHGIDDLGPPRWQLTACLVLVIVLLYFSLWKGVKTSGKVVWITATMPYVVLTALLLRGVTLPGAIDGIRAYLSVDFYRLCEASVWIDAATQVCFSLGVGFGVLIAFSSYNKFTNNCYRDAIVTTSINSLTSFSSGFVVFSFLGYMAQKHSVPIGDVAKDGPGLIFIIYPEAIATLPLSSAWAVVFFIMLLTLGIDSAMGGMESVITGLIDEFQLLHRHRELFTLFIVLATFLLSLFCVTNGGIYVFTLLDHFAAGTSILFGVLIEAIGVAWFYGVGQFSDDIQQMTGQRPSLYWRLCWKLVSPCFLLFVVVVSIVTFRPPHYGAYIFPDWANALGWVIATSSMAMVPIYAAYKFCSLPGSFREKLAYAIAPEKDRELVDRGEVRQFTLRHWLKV
T1 sequence (P23975 whole entry): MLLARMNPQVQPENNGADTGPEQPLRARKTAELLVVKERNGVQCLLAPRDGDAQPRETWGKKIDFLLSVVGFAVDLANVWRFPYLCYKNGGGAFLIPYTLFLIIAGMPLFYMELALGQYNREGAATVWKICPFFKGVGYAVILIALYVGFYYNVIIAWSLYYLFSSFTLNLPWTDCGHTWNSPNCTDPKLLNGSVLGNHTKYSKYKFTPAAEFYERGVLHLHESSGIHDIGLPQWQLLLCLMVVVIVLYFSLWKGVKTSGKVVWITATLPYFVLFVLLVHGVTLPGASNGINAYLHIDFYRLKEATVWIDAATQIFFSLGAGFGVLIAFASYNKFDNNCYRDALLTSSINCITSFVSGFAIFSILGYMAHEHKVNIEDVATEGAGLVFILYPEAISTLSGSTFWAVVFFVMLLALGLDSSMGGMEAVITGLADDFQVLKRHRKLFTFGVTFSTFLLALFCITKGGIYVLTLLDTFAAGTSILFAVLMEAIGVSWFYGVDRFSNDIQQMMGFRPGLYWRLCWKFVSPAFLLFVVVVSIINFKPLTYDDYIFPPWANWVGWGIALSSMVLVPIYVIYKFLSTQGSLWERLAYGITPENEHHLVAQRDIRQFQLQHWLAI

Structure (SMILES)	Ki [1] [nM]	inhibition [2]	inhibition [3]	also measured
O[C@](Cc1ccccc1-c1ccccc1)(c1ccccc1)[C@@H]1CNCCO1 (single isomer, unassigned)	3.7	3%	2.9%	–
O[C@](Cc1ccccc1)(c1ccccc1)[C@@H]1CNCCO1	148	4.2%	5.5%	–
O[C@](Cc1ccccc1Br)(c1ccccc1)[C@@H]1CNCCO1	11.9	13%	24.1%	–
COc1ccccc1C[C@@](O)(c1ccccc1)[C@@H]1CNCCO1 (single isomer, unassigned; isomer 2) [listing 1 of 2 here]	–	0.3%	4.6%	–
COc1cccc(C[C@@](O)(c2ccccc2)[C@@H]2CNCCO2)c1	–	2.8%	4.3%	inhibition [4]: 19.8%
COc1ccccc1C[C@@](O)(c1ccccc1)[C@@H]1CNCCO1 [listing 1 of 3 here]	–	5% and 5.5% and 1.4%	4.7% and 3.8% and 3.7%	–
CCOc1ccccc1C[C@@](O)(c1ccccc1)[C@@H]1CNCCO1	5.2	2.4%	3.8%	–
COc1ccccc1C[C@@](O)(c1ccccc1)[C@@H]1CNCCO1 [listing 2 of 3 here]	56	–	–	–
COc1ccccc1C[C@@](O)(c1ccccc1)[C@@H]1CNCCO1 (single isomer, unassigned; isomer 2) [listing 2 of 2 here]	156	–	–	–
COc1ccccc1C[C@@](O)(c1ccccc1)[C@@H]1CNCCO1.Cl.Cl.Cl	3.2	–	–	Stability (Liver microsomes [5]): 0%; Stability (Canis familiaris): 60%; Stability (Liver microsomes [6]): 98%; Activity (Rattus norvegicus [7]): 70%; ED50 (Rattus norvegicus [8]): 18 mg/kg
COc1ccc(C[C@@](O)(c2ccccc2)[C@@H]2CNCCO2)cc1	–	4.3%	6.2%	inhibition [4]: 25.2%
O[C@](Cc1ccccc1SC(F)(F)F)(c1ccccc1)[C@@H]1CNCCO1	54.4	14.8%	6.2%	–
CC(C)Oc1ccccc1C[C@@](O)(c1ccccc1)[C@@H]1CNCCO1	7.7	2.7%	5.1%	–
COc1ccccc1C[C@@](O)(c1ccccc1)[C@@H]1CNCCO1 [listing 3 of 3 here]	161	–	–	–
O[C@](Cc1ccccc1Cl)(c1ccccc1)[C@@H]1CNCCO1	30	4.6%	20.8%	–
